Test results taken from patent EP2650000A1, “Utilization of copper complexes involving 2-phenyl-3-hydroxy-4(1H)-quinolinone and 1,10-phenanthroline derivatives for the preparation of drugs for the treatment of tumour diseases” (Univerzita Palackeho, priority 2012, dated 2013).

Key:
Format in all cases: cell-based
[1] = system: human lung adenocarcinoma cell line (A549); test: MTT assay, in vitro anticancer activity, A549; details: A549 cells, 24 hours incubation, read-out: inhibition concentrations IC50
Protocol: (§1) The in vitro anticancer activity of the prepared complexes listed as the examples below was determined by the MTT assay. The method is based on the ability of metabolic-active cells to reduce (by mitochondrial dehydrogenases) the yellow tetrazolium dye (3-(4,5-dimethylthiazol-2-yl)-2,5-diphenyltetrazolium bromide (MTT)) to the blue formazane end-product. Because the reduction proceeds only in the living cells, the cytotoxicity of various compounds can be determined using this process. The water-insoluble formazane is quantified after dissolving in dimethyl sulfoxide (DMSO) with the solution of ammonia on a spectrophotometer (ELISA reader). The in vitro anticancer activity testing was performed on the following human cancer cell lines: lung adenocarcinoma (A549), cervix epitheloid carcinoma (HeLa), malignant melanoma (G361), ovarian carcinoma (A2780), cisplatin-resistant ovarian carcinoma (A2780R) and prostate carcinoma (LNCaP). The cell lines were maintained in plastic vessels in the DMEM medium (5 g/l glucose, 2 mM glutamine, 100 U/mL penicillin, 100 µg/mL streptomycin, 10% foetal calf serum and sodium bicarbonate) for cell cultures. The 80 µL of cell suspensions (ca. 1.25 × 10^5 cells per mL) were pipetted onto 96-well plastic microtitration plates. These were further pre-incubated at 37 °C in the CO2 atmosphere for 24 hours. The tested copper complexes and cisplatin, used as positive and therapeutic standard, were dissolved in N,N'-dimetylformamide in the concentrations up to 50 mM which served as stock solutions. For the experiment, the stock solutions were diluted 1000 x in the incubation medium (maximum concentration of 50.0 µM). After removal of the cultivation media, the mixtures of appropriate concentration were added to the cancer cells for the incubation period of 24 hours. The MTT analysis was performed spectrophotometrically (TECAN, Schoeller Instruments LLC) at 540 nm.
(§2) The concentrations of the tested complexes (µM) toxic for 50% of cancer cells (inhibition concentration IC50) were calculated from the dose-response curves.
The determination of in vitro anticancer activity of the studied compounds 1-6 and cisplatin against human lung adenocarcinoma cell line (A549) was performed by the MTT assay.

[2] = system: human ovarian carcinoma cell line (A2780); test: MTT assay, in vitro anticancer activity, A2780; details: A2780 cells, 24 hours incubation, read-out: inhibition concentrations IC50
Protocol: as §1, §2
The determination of in vitro anticancer activity of the studied compounds 1-6 and cisplatin against human ovarian carcinoma cell line (A2780) was performed by the MTT assay.

[3] = system: human prostate carcinoma cell line (LNCaP); test: MTT assay, in vitro anticancer activity, LNCaP; details: LNCaP cells, 24 hours incubation, read-out: inhibition concentrations IC50
Protocol: as §1, §2
The determination of in vitro anticancer activity of the studied compounds 1-6 and cisplatin against human prostate carcinoma cell line (LNCaP) was performed by the MTT assay.

[4] = system: human malignant melanoma cancer cell line (G361); test: MTT assay, in vitro anticancer activity, G361; details: G361 cells, 24 hours incubation, read-out: inhibition concentrations IC50
Protocol: as §1, with “The 80 µL of cell suspensions (ca. 1.25 × 10^5 cells per mL) were pipetted onto 96-well plastic microtitration plates.” left out

[5] = system: human cisplatin-resistant ovarian carcinoma cell line (A2780R); test: MTT assay, in vitro anticancer activity, A2780R; details: A2780R cells, 24 hours incubation, read-out: inhibition concentrations IC50
Protocol: as §1, §2
The determination of in vitro anticancer activity of the studied compounds 1-6 and cisplatin against human cisplatin-resistant ovarian carcinoma cell line (A2780R) was performed by the MTT assay.

[6] = system: human cervix epitheloid carcinoma cell line (HeLa); test: MTT assay, in vitro anticancer activity, HeLa; details: HeLa cells, 24 hours incubation, read-out: inhibition concentrations IC50
Protocol: as §1, §2
The determination of in vitro anticancer activity of the studied compounds 1-6 and cisplatin against human cervix epitheloid carcinoma cell line (HeLa) was performed by the MTT assay.

In the case of `N.N.[Cl][Pt][Cl]` [cisplatin, cis-diammine-dichlorido platinum(II) complex, reference compound], the IC50 [1] is reported as 25.8 ± 7.1 µM, the IC50 [2] is reported as 12 ± 0.8 µM and the IC50 [3] is reported as 3.8 ± 1.5 µM. The IC50 [4] was 3.4 ± 0.1 µM, the IC50 [5] was 27 ± 4.6 µM and the IC50 [6] was 10 ± 2.6 µM.
For `O=[N+]([O-])[O-].O=c1c([O-])c(-c2ccccc2)[nH]c2ccccc12.[Cu+2].c1cnc2c(c1)ccc1cccnc12` [complex 1, (2-phenyl-4-oxo-1,4-dihydroquinolin-3-olato-κ^2O^3:O^4)(1,10-phenanthroline-κ^2N^1:N^10)copper(II) nitrate monohydrate], the IC50 [1] was 2.5 ± 0.4 µM, the IC50 [2] was 0.65 ± 0.28 µM and the IC50 [3] was 2.4 ± 0.6 µM. The IC50 [4] was 0.82 ± 0.15 µM, the IC50 [5] was 0.83 ± 0.3 µM and the IC50 [6] was 2.9 ± 0.3 µM.
For `Cc1cc2cccnc2c2ncccc12.O=[N+]([O-])[O-].O=c1c([O-])c(-c2ccccc2)[nH]c2ccccc12.[Cu+2]` [complex 2, (2-phenyl-4-oxo-1,4-dihydroquinolin-3-olato-κ^2O^3:O^4)(5-methyl-1,10-phenanthroline-κ^2N^1:N^10)copper(II) nitrate monohydrate], the IC50 [1] was 2.5 ± 0.6 µM, the IC50 [2] was 0.38 ± 0.03 µM and the IC50 [3] was 2.1 ± 0.6 µM. It also gave an IC50 [4] of 0.53 ± 0.22 µM, an IC50 [5] of 0.78 ± 0.07 µM and an IC50 [6] of 2.6 ± 0.4 µM.
`O=[N+]([O-])[O-].O=c1c([O-])c(-c2ccccc2)[nH]c2ccccc12.[Cu+2].c1ccc(-c2ccnc3c2ccc2c(-c4ccccc4)ccnc23)cc1` [complex 3, (2-phenyl-4-oxo-1,4-dihydroquinolin-3-olato-κ^2O^3:O^4)(4,7-diphenyl-1,10-phenanthroline-κ^2N^1:N^10)copper(II) nitrate monohydrate] was tested, and the IC50 [1] was 1.7 ± 0.3 µM, the IC50 [2] was 0.66 ± 0.07 µM and the IC50 [3] was 0.74 ± 0.21 µM. The IC50 [4] was 0.96 ± 0.03 µM, the IC50 [5] was 0.73 ± 0.09 µM and the IC50 [6] was 1 ± 0.2 µM.
Compound `F[B-](F)(F)F.O=c1c([O-])c(-c2ccccc2)[nH]c2ccccc12.[Cu+2].c1cnc2c(c1)ccc1cccnc12` [complex 4, (2-phenyl-4-oxo-1,4-dihydroquinolin-3-olato-κ^2O^3:O^4) (1,10-phenanthroline-κ^2N^1:N^10)copper(II) tetrafluoroborate] has an IC50 [1] of 3.9 ± 1.2 µM, an IC50 [2] of 0.52 ± 0.1 µM and an IC50 [3] of 1.9 ± 0.6 µM. The IC50 [4] was 0.64 ± 0.2 µM, the IC50 [5] was 1.7 ± 0.6 µM and the IC50 [6] was 2.7 ± 0.6 µM.
`Cc1cc2cccnc2c2ncccc12.F[B-](F)(F)F.O=c1c([O-])c(-c2ccccc2)[nH]c2ccccc12.[Cu+2]` [complex 5, (2-phenyl-4-oxo-1,4-dihydroquinolin-3-olato-K^2O^3:O^4)(5-methyl-1,10-phenanthroline-κ^2N^1:N^10)copper(II) tetrafluoroborate monohydrate] gave an IC50 [1] of 2.5 ± 0.6 µM, an IC50 [2] of 0.36 ± 0.05 µM and an IC50 [3] of 1.5 ± 0.6 µM. For the same compound, the IC50 [4] was 0.53 ± 0.09 µM, the IC50 [5] was 0.56 ± 0.15 µM and the IC50 [6] was 2.4 ± 1 µM.
`F[B-](F)(F)F.O=c1c([O-])c(-c2ccccc2)[nH]c2ccccc12.[Cu+2].c1ccc(-c2ccnc3c2ccc2c(-c4ccccc4)ccnc23)cc1` [complex 6, (2-phenyl-4-oxo-1,4-dihydroquinolin-3-olato-κ^2O^3:O^4) (4,7-diphenyl-1,10-phenanthroline-κ^2N^1:N^10) copper(II) tetrafluoroborate] gave an IC50 [1] of 1.3 ± 0.4 µM, an IC50 [2] of 0.57 ± 0.11 µM and an IC50 [3] of 0.62 ± 0.08 µM. The IC50 [4] was 0.72 ± 0.06 µM, the IC50 [5] was 0.7 ± 0.2 µM and the IC50 [6] was 1.3 ± 0.4 µM.
